Source: patent US20260193264A1, “BENZOYPARAZINE PYRAZINES AND THEIR USES” (FOGHORN THERAPEUTICS INC., priority 2022, published 2026)

Key:
[1] = target: T1, HiBiT-BRM fusion protein in stable HeLa cell line (Homo sapiens, UniProt P51531); test: HiBiT-BRM cell-based degradation assay (Nano-Glo HiBiT Lytic Detection, 24 h); design: DC50: scale not given here; settings: HeLa HiBiT-BRM cells; for DC50: read-out: BRM HiBit Degradation IC50; for BRM HiBit Degradation Maximum (%): top dose 30 μM
T1 construct: expressed in transfected cells
Procedure, shortened: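 Luminescence from HiBiT/LgBiT complementation after lysis reports remaining HiBiT-BRM in stable HeLa cells exposed to compound for 24 h. Dosing used 3-fold serial dilutions, 10 points, 30 μM top final concentration. DMSO and a 2 μM BRM/BRG1 degrader standard defined 0% and 100% degradation.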

[2] = target: T2, HiBit-BRG1 fusion protein in stable HeLa cell line expressing HiBit-BRG1 and LgBit (Homo sapiens, UniProt P51532); test: HiBiT-BRG1 cell-based degradation assay (Nano-Glo HiBiT, 24 h); settings: HeLa HiBit-BRG1/LgBit cells; for Dmax: top dose 30 μM, read-out: BRG1 HiBit Degradation Maximum (%); for DC50: read-out: BRMG1 HiBit Degradation IC50
T2 construct: expressed in transfected cells
Procedure, shortened: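 Stable HeLa line co-expressing HiBiT-BRG1 and LgBiT, compound-treated 24 h; luminescence read after Nano-Glo HiBiT lytic reagent. % degradation normalised between DMSO (high control) and 2 μM reference BRM/BRG1 degrader (low control).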

T2 sequence (P51532 whole entry, the tested form may be a part): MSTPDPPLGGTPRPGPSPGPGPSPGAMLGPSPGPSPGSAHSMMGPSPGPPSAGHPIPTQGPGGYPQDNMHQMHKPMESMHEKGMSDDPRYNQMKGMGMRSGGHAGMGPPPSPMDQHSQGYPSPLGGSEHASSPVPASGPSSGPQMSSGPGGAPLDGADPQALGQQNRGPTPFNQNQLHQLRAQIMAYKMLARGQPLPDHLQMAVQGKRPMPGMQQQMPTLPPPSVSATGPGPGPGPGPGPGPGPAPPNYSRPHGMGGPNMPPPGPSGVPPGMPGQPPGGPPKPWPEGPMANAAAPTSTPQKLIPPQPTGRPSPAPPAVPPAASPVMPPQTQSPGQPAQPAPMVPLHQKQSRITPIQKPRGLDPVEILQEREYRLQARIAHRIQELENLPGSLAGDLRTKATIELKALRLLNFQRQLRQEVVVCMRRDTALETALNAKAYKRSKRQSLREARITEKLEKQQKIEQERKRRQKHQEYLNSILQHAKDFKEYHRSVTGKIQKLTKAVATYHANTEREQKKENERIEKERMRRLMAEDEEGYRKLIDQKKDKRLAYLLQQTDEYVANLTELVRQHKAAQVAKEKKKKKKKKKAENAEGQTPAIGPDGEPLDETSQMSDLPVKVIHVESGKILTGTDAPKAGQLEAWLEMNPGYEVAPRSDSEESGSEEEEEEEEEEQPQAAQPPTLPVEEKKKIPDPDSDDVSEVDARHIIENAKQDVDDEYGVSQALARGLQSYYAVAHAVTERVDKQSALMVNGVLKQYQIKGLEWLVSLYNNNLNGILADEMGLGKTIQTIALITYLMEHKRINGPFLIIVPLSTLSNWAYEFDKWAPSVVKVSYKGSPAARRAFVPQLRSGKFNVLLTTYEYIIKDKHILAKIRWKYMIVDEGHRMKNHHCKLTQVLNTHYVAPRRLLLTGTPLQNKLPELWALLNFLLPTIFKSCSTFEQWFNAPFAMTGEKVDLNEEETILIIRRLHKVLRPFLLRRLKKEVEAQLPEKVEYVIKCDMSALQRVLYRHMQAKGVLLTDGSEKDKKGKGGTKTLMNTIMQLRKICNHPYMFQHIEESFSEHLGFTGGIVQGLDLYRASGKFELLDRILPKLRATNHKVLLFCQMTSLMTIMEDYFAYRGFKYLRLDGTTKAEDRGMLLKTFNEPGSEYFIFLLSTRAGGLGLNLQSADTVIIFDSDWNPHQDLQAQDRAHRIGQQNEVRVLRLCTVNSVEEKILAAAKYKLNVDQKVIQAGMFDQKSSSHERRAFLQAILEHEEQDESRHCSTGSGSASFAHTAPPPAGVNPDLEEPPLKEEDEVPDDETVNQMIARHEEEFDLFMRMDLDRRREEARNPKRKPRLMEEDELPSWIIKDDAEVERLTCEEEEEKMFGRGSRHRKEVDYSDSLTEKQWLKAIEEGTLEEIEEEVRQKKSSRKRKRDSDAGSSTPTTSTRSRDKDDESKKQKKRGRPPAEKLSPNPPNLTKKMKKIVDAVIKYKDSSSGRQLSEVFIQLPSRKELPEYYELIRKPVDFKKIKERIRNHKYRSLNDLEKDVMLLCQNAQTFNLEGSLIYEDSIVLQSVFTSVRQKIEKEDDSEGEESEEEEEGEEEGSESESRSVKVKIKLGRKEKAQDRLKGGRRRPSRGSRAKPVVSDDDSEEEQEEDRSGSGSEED
T1 sequence (P51531 whole entry, the tested form may be a part): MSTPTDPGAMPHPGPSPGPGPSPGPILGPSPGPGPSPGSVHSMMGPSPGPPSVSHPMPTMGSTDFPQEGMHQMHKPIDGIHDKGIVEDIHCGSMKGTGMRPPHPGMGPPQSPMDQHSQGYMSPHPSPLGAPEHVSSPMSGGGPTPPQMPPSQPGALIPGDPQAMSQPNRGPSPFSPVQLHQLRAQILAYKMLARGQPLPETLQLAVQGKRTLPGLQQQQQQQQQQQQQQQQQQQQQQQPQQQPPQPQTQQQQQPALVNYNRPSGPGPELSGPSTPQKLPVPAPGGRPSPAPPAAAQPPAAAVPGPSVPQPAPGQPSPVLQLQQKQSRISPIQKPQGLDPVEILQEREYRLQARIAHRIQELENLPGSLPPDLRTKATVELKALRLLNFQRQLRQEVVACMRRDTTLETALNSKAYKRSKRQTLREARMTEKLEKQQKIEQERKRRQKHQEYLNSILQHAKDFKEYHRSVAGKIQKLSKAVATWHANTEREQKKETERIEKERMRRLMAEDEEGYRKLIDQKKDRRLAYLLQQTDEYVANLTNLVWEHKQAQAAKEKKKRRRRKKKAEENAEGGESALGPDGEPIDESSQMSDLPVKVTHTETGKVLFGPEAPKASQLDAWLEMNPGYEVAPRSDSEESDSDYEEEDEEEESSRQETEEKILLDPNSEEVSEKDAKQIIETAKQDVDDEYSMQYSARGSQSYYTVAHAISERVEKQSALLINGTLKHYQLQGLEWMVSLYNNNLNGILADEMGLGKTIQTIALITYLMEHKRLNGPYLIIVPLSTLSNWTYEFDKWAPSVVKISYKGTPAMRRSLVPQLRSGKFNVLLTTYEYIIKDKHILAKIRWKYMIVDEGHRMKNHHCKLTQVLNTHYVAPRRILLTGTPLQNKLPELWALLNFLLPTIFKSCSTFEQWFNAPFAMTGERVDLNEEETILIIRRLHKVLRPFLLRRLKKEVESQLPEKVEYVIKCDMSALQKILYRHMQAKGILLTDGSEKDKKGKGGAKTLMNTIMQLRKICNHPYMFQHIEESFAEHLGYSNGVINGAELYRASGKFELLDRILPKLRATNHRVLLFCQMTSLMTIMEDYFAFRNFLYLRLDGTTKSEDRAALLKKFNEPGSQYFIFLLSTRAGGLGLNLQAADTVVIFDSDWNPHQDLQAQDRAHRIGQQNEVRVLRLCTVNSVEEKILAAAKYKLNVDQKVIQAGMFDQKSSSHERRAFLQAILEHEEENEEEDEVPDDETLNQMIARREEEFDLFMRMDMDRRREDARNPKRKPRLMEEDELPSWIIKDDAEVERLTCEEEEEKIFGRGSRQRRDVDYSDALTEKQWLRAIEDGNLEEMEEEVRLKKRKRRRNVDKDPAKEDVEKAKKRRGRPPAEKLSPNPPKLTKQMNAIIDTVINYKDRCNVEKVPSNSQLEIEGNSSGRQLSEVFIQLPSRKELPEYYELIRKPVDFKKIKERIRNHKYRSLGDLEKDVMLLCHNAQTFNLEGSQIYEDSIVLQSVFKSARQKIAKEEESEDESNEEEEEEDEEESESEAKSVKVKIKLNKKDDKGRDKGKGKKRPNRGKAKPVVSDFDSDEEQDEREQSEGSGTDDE

SMILES	DC50 [1] [µM]	BRM HiBit Degradation Maximum (%) [1]	Dmax [2] [%]	DC50 [2] [µM]
Cc1ncsc1-c1ccc([C@H](C)NC(=O)[C@@H]2C[C@@H](O)CN2C(=O)[C@@H](c2cc(-c3cnc(N4CC[C@@H](c5ccc6nnc(-c7ccccc7O)cc6c5)C4)nc3)no2)C(C)C)cc1 [Compound 50, (2S,4R)-4-hydroxy-1-((R)-2-(3-(2-((S)-3-(3-(2-hydroxyphenyl)cinnolin-6-yl)pyrrolidin-1-yl)pyrimidin-5-yl)isoxazol-5-yl)-3-methylbutanoyl)-N-((S)-1-(4-(4-methylthiazol-5-yl)phenyl)ethyl)pyrrolidine-2-carboxamide]	< 0.01	A (“A” indicates maximum degradation ≥75%)	> 50	
CC(C)[C@@H](C(=O)N1C[C@H](O)C[C@H]1C(=O)N[C@@H](C)c1ccc(F)cc1)c1cc(N2CC3(CC(c4cc5nnc(-c6ccccc6O)cc5cc4C#N)C3)C2)no1 [Compound 227, (2S,4R)-1-((R)-2-(3-(6-(6-cyano-3-(2-hydroxyphenyl)cinnolin-7-yl)-2-azaspiro[3.3]heptan-2-yl)isoxazol-5-yl)-3-methylbutanoyl)-N-((S)-1-(4-fluorophenyl)ethyl)-4-hydroxypyrrolidine-2-carboxamide]	> 0.1	A (“A” indicates maximum degradation ≥75%)	> 50	> 0.1
C#Cc1cc(N2CC3(C2)CN(c2cc([C@H](C(=O)N4C[C@H](O)C[C@H]4C(=O)N[C@@H](C)c4ccc(-c5scnc5C)cc4)C(C)C)on2)C3)cc2nnc(-c3ccccc3O)cc12 [Compound 240, (2S,4R)-1-((R)-2-(3-(6-(5-ethynyl-3-(2-hydroxyphenyl)cinnolin-7-yl)-2,6-diazaspiro[3.3]heptan-2-yl)isoxazol-5-yl)-3-methylbutanoyl)-4-hydroxy-N-((S)-1-(4-(4-methylthiazol-5-yl)phenyl)ethyl)pyrrolidine-2-carboxamide]	< 0.01	A (“A” indicates maximum degradation ≥75%)	< 50	
Cc1ncsc1-c1ccc([C@H](C)NC(=O)[C@@H]2C[C@@H](O)CN2C(=O)C(C(C)C)n2cc(N3CC4CCN(c5ccc6cc(-c7ccccc7O)nnc6c5)CC43)nn2)cc1 (stereo partly drawn) [Compound 249, (2S,4R)-4-hydroxy-1-(2-(4-(3-(3-(2-hydroxyphenyl)cinnolin-7-yl)-3,8-diazabicyclo[4.2.0]octan-8-yl)-1H-1,2,3-triazol-1-yl)-3-methylbutanoyl)-N-((S)-1-(4-(4-methylthiazol-5-yl)phenyl)ethyl)pyrrolidine-2-carboxamide]	> 0.01	A (“A” indicates maximum degradation ≥75%)	> 75	> 0.1
Cc1ncsc1-c1ccc([C@H](C)NC(=O)[C@@H]2C[C@@H](O)CN2C(=O)C(C(C)C)n2cc(N3CCC4(CC3)CCN4c3ccc4cc(-c5ccccc5O)nnc4c3)nn2)cc1 (stereo partly drawn) [Compound 234, (2S,4R)-4-hydroxy-1-(2-(4-(1-(3-(2-hydroxyphenyl)cinnolin-7-yl)-1,7-diazaspiro[3.5]nonan-7-yl)-1H-1,2,3-triazol-1-yl)-3-methylbutanoyl)-N-((S)-1-(4-(4-methylthiazol-5-yl)phenyl)ethyl)pyrrolidine-2-carboxamide]	< 0.01	A (“A” indicates maximum degradation ≥75%)	> 50	> 0.01
Cc1ncsc1-c1ccc([C@H](C)NC(=O)[C@@H]2C[C@@H](O)CN2C(=O)[C@@H](c2cc(N3CCC(N4CC5(CN(Cc6ccc7cc(-c8ccccc8O)nnc7c6)C5)C4)CC3)no2)C(C)C)cc1 [Compound 244, (2S,4R)-4-hydroxy-1-((R)-2-(3-(4-(6-((3-(2-hydroxyphenyl)cinnolin-7-yl)methyl)-2,6-diazaspiro[3.3]heptan-2-yl)piperidin-1-yl)isoxazol-5-yl)-3-methylbutanoyl)-N-((S)-1-(4-(4-methylthiazol-5-yl)phenyl)ethyl)pyrrolidine-2-carboxamide]	> 0.1	B (“B” indicates maximum degradation ≥50%)	< 50	
Cc1ncsc1-c1ccc([C@H](C)NC(=O)[C@@H]2C[C@@H](O)CN2C(=O)[C@H](c2cc(N3CCC4(CC3)CC(c3ccc5cc(-c6ccccc6O)nnc5c3)C4)no2)C(C)C)cc1 [Compound 25]	> 0.1	B (“B” indicates maximum degradation ≥50%)	< 50	
Cc1ncsc1-c1ccc([C@H](C)NC(=O)[C@@H]2C[C@@H](O)CN2C(=O)[C@@H](c2cc(-c3cnc(N4CC[C@H](c5ccc6cc(-c7ccccc7O)nnc6c5)C4)nc3)no2)C(C)C)cc1 [Compound 22]	< 0.01	A (“A” indicates maximum degradation ≥75%)	> 75	< 0.01
COC[C@H]1CN(c2cc([C@H](C(=O)N3C[C@H](O)C[C@H]3C(=O)N[C@@H](C)c3ccc(-c4scnc4C)cc3)C(C)C)on2)CCN1c1ccc2nnc(-c3ccccc3O)cc2c1 [Compound 138, (2S,4R)-4-hydroxy-1-((R)-2-(3-((R)-4-(3-(2-hydroxyphenyl)cinnolin-6-yl)-3-(methoxymethyl)piperazin-1-yl)isoxazol-5-yl)-3-methylbutanoyl)-N-((S)-1-(4-(4-methylthiazol-5-yl)phenyl)ethyl)pyrrolidine-2-carboxamide]	< 0.01	A (“A” indicates maximum degradation ≥75%)	> 75	> 0.01
Cc1ncsc1-c1ccc([C@H](C)NC(=O)[C@@H]2C[C@@H](O)CN2C(=O)[C@@H](c2cc(N3CC4(CCN(c5ccc6cc(-c7ccccc7O)nnc6c5)CC4(F)F)C3)no2)C(C)C)cc1 [Compound 105, (2S,4R)-1-((R)-2-(3-(5,5-difluoro-7-(3-(2-hydroxyphenyl)cinnolin-7-yl)-2,7-diazaspiro[3.5]nonan-2-yl)isoxazol-5-yl)-3-methylbutanoyl)-4-hydroxy-N-((S)-1-(4-(4-methylthiazol-5-yl)phenyl)ethyl)pyrrolidine-2-carboxamide]	< 0.01	A (“A” indicates maximum degradation ≥75%)	> 75	< 0.01
CC(C)[C@@H](C(=O)N1C[C@H](O)C[C@H]1C(=O)N[C@@H](C)c1ccc(F)cc1)c1cc(-c2ccc3nnc(-c4ccccc4O)cc3c2)no1 [Compound 134, (2S,4R)-N-((S)-1-(4-fluorophenyl)ethyl)-4-hydroxy-1-((R)-2-(3-(3-(2-hydroxyphenyl)cinnolin-6-yl)isoxazol-5-yl)-3-methylbutanoyl)pyrrolidine-2-carboxamide]	< 0.01	A (“A” indicates maximum degradation ≥75%)	> 75	> 0.01
Cc1ncsc1-c1ccc([C@H](C)NC(=O)[C@@H]2C[C@@H](O)CN2C(=O)[C@@H](c2cc(N3CC4(C3)CN(c3cc5nnc(-c6ccccc6O)cc5cc3F)C4)no2)C(C)C)cc1 [Compound 179, (2S,4R)-1-((R)-2-(3-(6-(6-fluoro-3-(2-hydroxyphenyl)cinnolin-7-yl)-2,6-diazaspiro [3.3]heptan-2-yl)isoxazol-5-yl)-3-methylbutanoyl)-4-hydroxy-N-((S)-1-(4-(4-methylthiazol-5-yl)phenyl)ethyl)pyrrolidine-2-carboxamide]	< 0.01	A (“A” indicates maximum degradation ≥75%)	< 50	
CNC(=O)[C@@H]1C[C@@H](O)CN1C(=O)[C@@H](c1cc(N2CC3(CN(c4ccc5cc(-c6ccccc6O)nnc5c4)C3)C2)no1)C(C)C [Compound 156, (2S,4R)-4-hydroxy-1-((R)-2-(3-(6-(3-(2-hydroxyphenyl)cinnolin-7-yl)-2,6-diazaspiro[3.3]heptan-2-yl)isoxazol-5-yl)-3-methylbutanoyl)-N-methylpyrrolidine-2-carboxamide]	< 0.01	A (“A” indicates maximum degradation ≥75%)	< 50	
Cc1ncsc1-c1ccc([C@H](C)NC(=O)[C@@H]2C[C@@H](O)CN2C(=O)[C@@H](c2cc(N3CCC4(CCN(c5ccc6nnc(-c7ccccc7O)cc6c5)C4)CC3)no2)C(C)C)cc1 [Compound 72, (2S,4R)-4-hydroxy-1-((R)-2-(3-(2-(3-(2-hydroxyphenyl)cinnolin-6-yl)-2,8-diazaspiro [4.5]decan-8-yl)isoxazol-5-yl)-3-methylbutanoyl)-N-((S)-1-(4-(4-methylthiazol-5-yl)phenyl)ethyl)pyrrolidine-2-carboxamide]	< 0.01	A (“A” indicates maximum degradation ≥75%)	> 75	> 0.01
Cc1ncsc1-c1ccc([C@H](C)NC(=O)[C@@H]2C[C@@H](O)CN2C(=O)[C@H](C(C)C)n2cc(-c3ccc4nnc(-c5ccccc5O)cc4c3C)nn2)cc1 [Compound 203, (2S,4R)-4-hydroxy-1-((S)-2-(4-(3-(2-hydroxyphenyl)-5-methylcinnolin-6-yl)-1H-1,2,3-triazol-1-yl)-3-methylbutanoyl)-N-((S)-1-(4-(4-methylthiazol-5-yl)phenyl)ethyl)pyrrolidine-2-carboxamide]	> 0.01	A (“A” indicates maximum degradation ≥75%)	< 50	
